The term IC50 denotes the midpoint of a concentration-inhibition curve. A word on the viability, T/C: it is the ratio of treated to control.

Several values for one entry are separate records, joined by “and”; a condition that tells them apart may be missing. Identical values can stand only once.

The source of these data is PubChem BioAssay AID1918944 (Molecular Pharmacology Branch, DTP, NCI, 2023).

This test concerns 786-0 complex spheroid viability. Kind of test: Anticancer human tumor 786-0 cell line growth inhibition.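 For all read-outs here: spheroids exposed to agents for seven days before readout.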 Conditions: for viability, T/C: stronger effect = lower value. The essentials: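 Multicellular complex spheroids of tumor cells with human endothelial cells (HUVEC) and mesenchymal stem cells; the LSD1 inhibitor iadademstat was combined with standard-of-care or investigational agents. Top concentration at or near clinical Cmax, half-log dilutions; final DMSO ≤0.25%.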

[1] abbreviates: curve of first compound, second compound 0.1 µM.
Setting [2] is: curve of first compound, second compound 0.316 µM.
[3] abbreviates: curve of first compound, second compound 1 µM.
Setting [4] is: curve of first compound, second compound 3.16 µM.
The mark [5] stands for this setting: curve of first compound, second compound 10 µM.
The mark [6] stands for this setting: second compound 0.1 µM, first compound 0.000316 µM.
[7] abbreviates: second compound 0.1 µM, first compound 0.001 µM.
Setting [8] is: second compound 0.1 µM, first compound 0.00316 µM.
Where [9] appears, read: second compound 0.1 µM, first compound 0.01 µM.
Where [10] appears, read: second compound 0.1 µM, first compound 0.0316 µM.
The mark [11] stands for this setting: second compound 0.1 µM, first compound 0.1 µM.
[12] abbreviates: second compound 0.316 µM, first compound 0.000316 µM.
Where [13] appears, read: second compound 0.316 µM, first compound 0.001 µM.
The mark [14] stands for this setting: second compound 0.316 µM, first compound 0.00316 µM.
Where [15] appears, read: second compound 0.316 µM, first compound 0.01 µM.
[16] abbreviates: second compound 0.316 µM, first compound 0.0316 µM.
The mark [17] stands for this setting: second compound 0.316 µM, first compound 0.1 µM.
Where [18] appears, read: second compound 1 µM, first compound 0.000316 µM.
The mark [19] stands for this setting: second compound 1 µM, first compound 0.001 µM.
[20] abbreviates: second compound 1 µM, first compound 0.00316 µM.
[21] abbreviates: second compound 1 µM, first compound 0.01 µM.
Where [22] appears, read: second compound 1 µM, first compound 0.0316 µM.
Where [23] appears, read: second compound 1 µM, first compound 0.1 µM.
[24] abbreviates: second compound 3.16 µM, first compound 0.000316 µM.
Where [25] appears, read: second compound 3.16 µM, first compound 0.001 µM.
The mark [26] stands for this setting: second compound 3.16 µM, first compound 0.00316 µM.
Setting [27] is: second compound 3.16 µM, first compound 0.01 µM.
Where [28] appears, read: second compound 3.16 µM, first compound 0.0316 µM.
Where [29] appears, read: second compound 3.16 µM, first compound 0.1 µM.
Where [30] appears, read: second compound 10 µM, first compound 0.000316 µM.
[31] abbreviates: second compound 10 µM, first compound 0.001 µM.
Where [32] appears, read: second compound 10 µM, first compound 0.00316 µM.
Setting [33] is: second compound 10 µM, first compound 0.01 µM.
Where [34] appears, read: second compound 10 µM, first compound 0.0316 µM.
Where [35] appears, read: second compound 10 µM, first compound 0.1 µM.

Take `CC(C)CC(NC(=O)CNC(=O)c1cc(Cl)ccc1Cl)B1OC(=O)CC(CC(=O)O)(C(=O)O)O1` (centres undefined) + NC1CCC(NC2CC2c2ccccc2)CC1: the concentration for half-maximal inhibition (IC50) runs as follows: under setting [1], 12.9 nM; under setting [2], 10.7 nM; under setting [3], 12 nM; under setting [4], 9.62 nM; under setting [5], 10.2 nM. In addition, the viability, T/C is, setting by setting: under setting [6], 127%; under setting [7], 123%; under setting [8], 110%; under setting [9], 52.4%; under setting [10], 32.4%; under setting [11], 9.25%. For the same molecule, the viability, T/C runs as follows: under setting [12], 129%; under setting [13], 130%; under setting [14], 121%; under setting [15], 51.6%; under setting [16], 30.7%; under setting [17], 8.11%. The viability, T/C was 113% under setting [18]; 128% under setting [19]; 112% under setting [20]; 52.3% under setting [21]; 34.1% under setting [22]; 10% under setting [23]. The viability, T/C under setting [24] was 109%; the viability, T/C under setting [25] is 112%; the viability, T/C under setting [26] is 107%; the viability, T/C under setting [27] was 46.7%; the viability, T/C under setting [28] was 29.5%; the viability, T/C under setting [29] is 9.53%. The viability, T/C is 96.8% under setting [30]; 91.4% under setting [31]; 82.1% under setting [32]; 50.1% under setting [33]; 19.7% under setting [34]; 7.29% under setting [35].
Take `Nc1ncn(C2CC(O)C(CO)O2)c(=O)n1` (centres undefined): the viability, T/C (compound 0.00316 µM) was 101% and 107%; the viability, T/C (compound 0.01 µM) was 92.9% and 108%; the viability, T/C (compound 0.0316 µM) is 87.4% and 97.4%; the viability, T/C (compound 0.1 µM) is 77.8% and 93.8%; the viability, T/C (compound 0.316 µM) is 68.4% and 82.3%; the viability, T/C (compound 1 µM) was 53.7% and 76.3%. In addition, where the note is “curve of compound”, the concentration for half-maximal inhibition (IC50) was greater than 1000 nM.
Turning to `COc1cc(C2c3cc4c(cc3C(OC3OC5COC(C)OC5C(O)C3O)C3COC(=O)C23)OCO4)cc(OC)c1O` (centres undefined) + NC1CCC(NC2CC2c2ccccc2)CC1, the IC50 reads like this: under setting [1], 203 nM; under setting [2], 216 nM; under setting [3], 199 nM; under setting [4], 149 nM; under setting [5], 115 nM. For the same molecule, the viability, T/C reads like this: (second compound 0.1 µM, first compound 0.00949 µM) 115%; (second compound 0.1 µM, first compound 0.03 µM) 105%; (second compound 0.1 µM, first compound 0.0949 µM) 61.1%; (second compound 0.1 µM, first compound 0.3 µM) 44.3%; (second compound 0.1 µM, first compound 0.949 µM) 22%; (second compound 0.1 µM, first compound 3 µM) 9.16%. Also, the viability, T/C (second compound 0.316 µM, first compound 0.00949 µM) is 122%; the viability, T/C (second compound 0.316 µM, first compound 0.03 µM) was 119%; the viability, T/C (second compound 0.316 µM, first compound 0.0949 µM) was 65.7%; the viability, T/C (second compound 0.316 µM, first compound 0.3 µM) is 45.8%; the viability, T/C (second compound 0.316 µM, first compound 0.949 µM) is 19.4%; the viability, T/C (second compound 0.316 µM, first compound 3 µM) was 8.96%. The viability, T/C is 118% (second compound 1 µM, first compound 0.00949 µM); 110% (second compound 1 µM, first compound 0.03 µM); 66.4% (second compound 1 µM, first compound 0.0949 µM); 40.7% (second compound 1 µM, first compound 0.3 µM); 18.8% (second compound 1 µM, first compound 0.949 µM); 8.18% (second compound 1 µM, first compound 3 µM). Also, the viability, T/C runs as follows: (second compound 3.16 µM, first compound 0.00949 µM) 107%; (second compound 3.16 µM, first compound 0.03 µM) 104%; (second compound 3.16 µM, first compound 0.0949 µM) 56.2%; (second compound 3.16 µM, first compound 0.3 µM) 34.4%; (second compound 3.16 µM, first compound 0.949 µM) 17.1%; (second compound 3.16 µM, first compound 3 µM) 7.91%. Moreover, the viability, T/C is, setting by setting: (second compound 10 µM, first compound 0.00949 µM) 81.6%; (second compound 10 µM, first compound 0.03 µM) 79.6%; (second compound 10 µM, first compound 0.0949 µM) 48.1%; (second compound 10 µM, first compound 0.3 µM) 33.2%; (second compound 10 µM, first compound 0.949 µM) 16.4%; (second compound 10 µM, first compound 3 µM) 4.68%.
As to `CCc1c2c(nc3ccc(O)cc13)-c1cc3c(c(=O)n1C2)COC(=O)[C@]3(O)CC`, the viability, T/C is 6% and 6.39% (compound 0.000949 µM); 4.1% and 4.99% (compound 0.003 µM); 3.66% and 5.52% (compound 0.00949 µM); 3.36% and 6.78% (compound 0.03 µM); 4.94% and 9.67% (compound 0.0949 µM); 3.44% and 9.65% (compound 0.3 µM). The IC50 (curve of compound) was less than 0.949 nM.
On to `CC(C)CC(NC(=O)C(Cc1ccccc1)NC(=O)c1cnccn1)B(O)O` (centres undefined) + NC1CC1c1ccc(-c2cccc(O)c2)cc1, for which the IC50 worked out at 3.71 nM under setting [1]; 3.52 nM under setting [2]; 3.41 nM under setting [3]; 3.23 nM under setting [4]; 2.35 nM under setting [5]. Also, the viability, T/C was 114% under setting [6]; 110% under setting [7]; 55.5% under setting [8]; 11.2% under setting [9]; 1.11% under setting [10]; 0.47% under setting [11]. The viability, T/C reads like this: under setting [12], 114%; under setting [13], 111%; under setting [14], 53.5%; under setting [15], 9.41%; under setting [16], 1.04%; under setting [17], 0.33%. Also, the viability, T/C by setting is: under setting [18], 114%; under setting [19], 109%; under setting [20], 51.8%; under setting [21], 10.7%; under setting [22], 1.17%; under setting [23], 0.5%. Further, the viability, T/C by setting is: under setting [24], 105%; under setting [25], 110%; under setting [26], 50.4%; under setting [27], 9.96%; under setting [28], 1.23%; under setting [29], 0.53%. The viability, T/C was 102% under setting [30]; 99.6% under setting [31]; 32.9% under setting [32]; 6.5% under setting [33]; 0.86% under setting [34]; 0.34% under setting [35].
